Measurements reported in article PMC9569914, “Unique Structural Fold of LonBA Protease from Bacillus subtilis, a Member of a Newly Identified Subfamily of Lon Proteases” (International Journal of Molecular Sciences, 2022).

Experiments:
EcLonA = target: T1, EcLonA (Escherichia coli, UniProt P0A9M0); experiment: inhibition of PepTBE hydrolysis (peptidase assay, DTDP detection); also suppresses β-casein proteolysis; format: biochemical
T1 construct: gene lon; EcLonA-H6 (C-terminal hexahistidine tag)
T1 sequence (P0A9M0 2-784): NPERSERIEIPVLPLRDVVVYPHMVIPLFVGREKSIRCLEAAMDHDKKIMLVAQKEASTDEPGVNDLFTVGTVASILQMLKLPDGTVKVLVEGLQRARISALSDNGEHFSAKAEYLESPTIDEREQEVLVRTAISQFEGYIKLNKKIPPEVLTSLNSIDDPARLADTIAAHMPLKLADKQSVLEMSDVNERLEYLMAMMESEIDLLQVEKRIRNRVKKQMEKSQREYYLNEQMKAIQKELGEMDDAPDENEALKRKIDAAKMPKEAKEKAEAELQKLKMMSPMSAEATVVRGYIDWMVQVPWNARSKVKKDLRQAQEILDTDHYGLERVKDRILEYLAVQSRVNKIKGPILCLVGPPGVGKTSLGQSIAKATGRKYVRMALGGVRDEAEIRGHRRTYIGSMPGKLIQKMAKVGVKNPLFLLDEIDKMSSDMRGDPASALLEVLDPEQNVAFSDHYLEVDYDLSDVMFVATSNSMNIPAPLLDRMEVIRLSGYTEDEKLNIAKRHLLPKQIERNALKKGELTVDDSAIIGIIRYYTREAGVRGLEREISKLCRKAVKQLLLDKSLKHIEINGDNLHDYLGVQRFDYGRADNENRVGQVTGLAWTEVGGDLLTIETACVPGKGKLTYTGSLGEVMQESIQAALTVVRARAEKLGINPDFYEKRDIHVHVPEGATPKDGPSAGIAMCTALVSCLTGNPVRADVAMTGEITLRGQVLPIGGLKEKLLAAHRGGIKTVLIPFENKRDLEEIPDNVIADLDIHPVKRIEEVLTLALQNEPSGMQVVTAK

BsLonBA = target: T2, BsLonBA (Bacillus subtilis, UniProt P42425); experiment: IC50 from PepTBE peptidase assay of full-length enzyme; format: biochemical
T2 construct: gene lon2; P domain, residues 347–552 (crystal); full-length BsLonBA-H6 (IC50)
T2 sequence (P42425 whole entry, the tested form may be a part): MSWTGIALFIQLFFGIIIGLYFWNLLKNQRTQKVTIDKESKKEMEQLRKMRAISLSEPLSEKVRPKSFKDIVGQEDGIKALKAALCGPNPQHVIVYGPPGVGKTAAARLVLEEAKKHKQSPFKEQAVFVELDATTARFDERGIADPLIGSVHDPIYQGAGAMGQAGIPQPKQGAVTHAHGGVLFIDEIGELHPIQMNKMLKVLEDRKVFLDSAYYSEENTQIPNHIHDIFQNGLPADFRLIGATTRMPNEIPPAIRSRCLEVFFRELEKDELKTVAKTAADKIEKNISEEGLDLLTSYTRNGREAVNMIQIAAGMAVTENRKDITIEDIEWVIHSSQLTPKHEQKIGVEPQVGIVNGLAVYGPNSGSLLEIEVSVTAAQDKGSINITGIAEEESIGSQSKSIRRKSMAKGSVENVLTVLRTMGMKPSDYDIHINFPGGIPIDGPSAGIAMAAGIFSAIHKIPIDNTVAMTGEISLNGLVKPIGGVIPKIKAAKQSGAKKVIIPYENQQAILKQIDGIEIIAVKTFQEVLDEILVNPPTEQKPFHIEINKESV

[1] = target: the molecule itself; experiment: crystal structure; P domain with bortezomib (molar ratio 1:6), 10 mM MgCl2, hanging drop, 35% PEG400 pH 7.8; space group P6_(3), two molecules in the asymmetric unit, hexamer by the crystallographic 3-fold axis; 1.9 Å
[2] = target: the molecule itself; experiment: SEC; HiPrep 26/60 Sephacryl S-200 HR sizing column before crystallization, 25 mM Tris pH 7.5, 200 mM NaCl, 2 mM TCEP, 4-8 °C; no bortezomib

Molecule | IC50 (EcLonA) [nM] | IC50 (BsLonBA) [nM] | stoichiometry N [1] | stoichiometry N [2]
CC(C)C[C@H](NC(=O)[C@H](Cc1ccccc1)NC(=O)c1cnccn1)B(O)O [bortezomib] | 50 | 1150 |  | 
P domain of BsLonBA (residues 347-552) (domain or fragment, Bacillus subtilis strain 168, UniProt P42425 347-552, looked up, bortezomib covalently bound to the Oγ of Ser445 via the boronate moiety (in the crystal only; added after the sizing column), LonBA protease (previously assigned as LonB) of Bacillus subtilis strain 168, protease (P) domain, residues Gly347-Val552 of the 552-residue enzyme; catalytic dyad Ser445 and Lys488; Dimer on the sizing column, hexamer in the crystal by crystallographic symmetry (two chains in the asymmetric unit); Modelled in the maps: residues 352-547 in chain A and 348-535 in chain B; also called protease …) GVEPQVGIVNGLAVYGPNSGSLLEIEVSVTAAQDKGSINITGIAEEESIGSQSKSIRRKSMAKGSVENVLTVLRTMGMKPSDYDIHINFPGGIPIDGPSAGIAMAAGIFSAIHKIPIDNTVAMTGEISLNGLVKPIGGVIPKIKAAKQSGAKKVIIPYENQQAILKQIDGIEIIAVKTFQEVLDEILVNPPTEQKPFHIEINKESV |  |  | 6 | 2
